# According to paper PMC7466040, “Sevanol and Its Analogues: Chemical Synthesis, Biological Effects and Molecular Docking” (Pharmaceuticals, 2020):
# How the values were obtained:
# human ASIC3 channels = details: natural sevanol; read-out: IC50, inhibition of human ASIC3 channels; cited from earlier work
# ICR male mice [1] = assay: Complete Freund's adjuvant-induced thermal hyperalgesia (hot plate); format: in vivo; details: hot plate 53 °C
# Method: (§1) Specific pathogen-free outbred ICR male mice (6 to 8 weeks old, weighing 29 to 33 g) were obtained from the Animal Breeding Facility of the Branch of the Shemyakin-Ovchinnikov Institute of Bioorganic Chemistry of the Russian Academy of Sciences (Pushchino). The animals were acclimatized for 2 weeks before the experimental procedures, and were kept in two-corridor barrier rooms under a controlled environment: a temperature of 20 to 24 °C, a relative humidity of 30% to 60%, and a 12 h light cycle. The animals were housed in Type 3 standard polycarbonate cages (820 cm2) on bedding (LIGNOCEL BK 8/15, JRS, Germany), with ad libitum access to feed (SSNIFF V1534-300, Spezialdiaeten, GmbH) and filtered tap water. The mouse cages were also supplied with material for environmental enrichment, i.e., Mouse House (Techniplast, Italy). Sevanol or the vehicle was administered intravenously, intranasally and orally (30 min before testing).
# The development of the inflammation and thermal hyperalgesia of the paw was induced by the injection of the oil/saline (1:1) CFA emulsion into the dorsal surface of the hind paw of the mice (20 μL/paw) 24 h before the measurement. Saline (20 μL) was injected into the control mice. The inflamed paw withdrawal latencies to thermal stimulation were measured on a hot plate device (Hot Plate Analgesia Meter, Columbus Instruments) with a set temperature of 53 ± 0.1 °C and a cut-off time of 60 s.
# (§2) Figure 5 The analgesic and anti-inflammatory effects of sevanol following intravenous, intranasal and per os administration. The effect of sevanol on the acetic acid induced writhing (A–C) and on the mice withdrawal latency on a hot plate in the thermal hyperalgesia test after CFA injection (D–F) upon intravenous (A,D), intranasal (B,E) and oral (C,F) administration. […] The results are presented as the mean ± SD (n = 6–10). The p-values of the sevanol groups vs. the saline group are based on an analysis of variance and on Tukey’s test; * p < 0.05, ** p < 0.005, *** p < 0.001.
# ICR male mice [2] = assay: CFA-induced paw oedema; format: in vivo; details: p.o. only, not i.v. or i.n., 2, 4, 8 and 24 h
# ICR male mice [3] = assay: Abdominal constriction test of visceral pain (acetic acid-induced writhing); format: in vivo
# Method: as §1
# The mice were divided into separate groups, and sevanol or saline was administrated (30 min before testing) as described above. Acetic acid in saline (0.6%, 10 mL/kg) was injected intraperitoneally. The mice were moved into transparent glass cylinders, and the number of writhes was registered for 15 min.
# as §2
compound,measurement,setting,value
O=C(O)CC(C(=O)O)C(OC(=O)C1=Cc2cc(O)c(O)cc2C(c2ccc(O)c(O)c2)C1C(=O)OC(C(=O)O)C(CC(=O)O)C(=O)O)C(=O)O (stereo not drawn) [sevanol],IC50,human ASIC3 channels,300 µM
same,"dose at which reversal of CFA-induced thermal hyperalgesia reached statistical significance, i.n.",ICR male mice [1]; intranasal,1 mg/kg
same,"dose at which reversal of CFA-induced thermal hyperalgesia reached statistical significance, i.v.",ICR male mice [1]; intravenous,1 mg/kg
same,"dose at which reversal of CFA-induced thermal hyperalgesia was statistically significant, p.o.",ICR male mice [1]; oral,0.1 mg/kg
same,paw oedema reduction,ICR male mice [2],significant reduction in paw oedema
same,"reduction of the number of writhes, i.n.","ICR male mice [3]; intranasal, 1 mg/kg",more than 50%
same,"dose producing statistically significant reduction of writhes, i.n.","ICR male mice [3]; intranasal, 30 min before acetic acid",higher than 0.1 mg/kg
same,"reduction of the number of writhes, i.v.","ICR male mice [3]; intravenous, 1 mg/kg",more than 50%
same,"dose producing statistically significant reduction of writhes, i.v.","ICR male mice [3]; intravenous, 30 min before acetic acid",higher than 0.1 mg/kg
same,"reduction of the number of writhes, p.o.","ICR male mice [3]; oral, 1 mg/kg",more than 50%
same,"dose from which effective in reducing writhes, p.o.","ICR male mice [3]; oral, 30 min before acetic acid",≥ 0.01 mg/kg
same,enhancement of analgesic and anti-inflammatory effect by oral administration versus other routes,"ICR male mice [3]; p.o. vs i.v./i.n., both tests",10 fold
